Measured values as given in USRE42961E1, “Use of autonomic nervous system neurotransmitters inhibition and atrial parasympathetic fibers ablation for the treatment of atrial arrhythmias and to preserve drug effects” (St. Jude Medical, Atrial Fibrillation Division, Inc., priority 2000, dated 2011).
Where “and” joins values, the source holds several entries; their conditions need not be identical. Identical values can stand only once.

Legend:
atrial fibrillation = assay: Canine atrial fibrillation model with vagal and stellar ganglion denervation/stimulation (ERP duration and dispersion, conduction velocity, wavelength, AF duration); assay type: in vivo, dog; conditions: vagal stimulation in the presence of class III drug therapy
Excerpt: In a group of 14 anaesthetised open chest dogs, atrial fibrillation was induced by fast pacing and up to 10 attempts of arrhythmia initiations during baseline condition, vagal denervation, right and left vagal stimulation #1 (1 Hz, 0.1 ms), right and left stellar ganglions denervation, right and left vagal stimulation #2 (1 Hz, 0.1 ms), right and left stellar ganglions stimulation (10 Hz, 2 ms), and right and left vagal stimulation (1 Hz, 0.1 ms) associated with right and left stellar ganglions stimulation (10 Hz, 2 ms). Under the same conditions described above, the effective refractory period duration and dispersion (at S1S1=200 ms), the conduction velocity and the wavelength are determined. Atrial fibrillation occurrence was evaluated by the mean duration of 10 atrial fibrillation episodes at baseline (for a group of animals when none of the 10 atrial fibrillation episodes at baseline were lasting more than 3 minutes) and following each of the conditions described above. […]
Activation Mapping: Five thin plastic sheets containing 112 bipolar electrodes with 1 mm interpolar and 6 mm interelectrode distances were sewn into position on atrial epicardial surface. […] Each electrogram was analyzed with computer-determined peak-amplitude criteria and was reviewed manually. […] Isochrone maps and activation times for each activation were recorded by the use of IBM ink jet printer. […]

atrial flutter circuit = assay: Canine Y-shaped lesion model of sustained stable atrial flutter; reset-response measurement of cycle length, refractory period and excitable gap during neurotransmitter infusion with or without sotalol; assay type: in vivo, dog
Protocol: In a group of 13 open chest anaesthetised dogs, atrial flutter model was produced during baseline conditions around the tricuspid valve using a Y-shaped lesion in the intercaval area extending to the right atrial appendage. Atrial flutter was induced at the shortest effective refractory period site using fast pacing stimulation (S1S1) of 100-150 ms. This manoeuvre was repeated as much as necessary with more damage in the Y-shaped lesion model to achieve a sustained stable atrial flutter (>10 min) during the baseline conditions. In order to determine the excitable gap duration and composition during this sustained and stable atrial flutter, a diastole was scanned with a single premature extrastimulus, S1S2 (S1S2=]refractory period, flutter cycle length[) to define the atrial flutter circuit composition and duration (flutter cycle length=refractory period+excitable gap). Atrial flutter cycle length, atrial effective refractory period and duration of the excitable gap were then determined. Measures were repeated during a constant infusion into the right coronary artery of norepinephrine (15 μg/min) and acetylcholine (2 μg/min) allowing 15 min for recovery from norepinephrine effects. The effects of norepinephrine and acetylcholine at a constant plasma level of d-sotalol or d,l-sotalol (0.8 mg/kg+0.4 mg/kg/hr) were also studied in 2 different groups of chloralose anaesthetised dogs on the same electrophysiological parameters described above.
Atrial Flutter protocol: All experiments described were in accordance with institutional guidelines for animal experimentation. Fourteen mongrel dogs of either sex, weight 29-45 kg, were studied in the post-absorptive state. General anaesthesia was induced with sodium thiopental (25 mg/kg iv.) and maintained with chloralose (80 mg/kg iv. bolus supplemented by 20 mg/kg/hr maximum as needed). The dogs were intubated and ventilated (Harvard pump) with room air (10 breaths/min, tidal volume to achieve a maximum inspiratory pressure of 20 cm water) to maintain arterial pH 7.35-7.45 and PaO2>80 mm Hg. Arterial and venous cannulae were inserted in the left femoral artery and vein by direct cut down for blood pressure monitoring and drug administration, respectively. An additional venous cannulae was inserted in the right femoral vein or in the right internal jugular vein for blood sampling. Muscular relaxation was then induced with gallamine triethiodide (Flaxedil 100) 3 mg/kg intravenously. A right thoracotomy was performed via the fourth or fifth intercostal space and the pericardium was incised to provide access to the vena cava and the right atrium. […] A second line, extending from the first two-thirds of the way toward the tip of the right atrial appendage and parallel to 1-2 cm above the atrioventricular groove, was similarly incised and sewn over. Five close (2-4 mm) bipolar epicardial silver electrodes (insulated except at the tip) for stimulating and/or recording were sewn around the base of the right atrium within 1 cm of the tricuspid annulus. Three were positioned on the anterior surface and two on the posterior surface (Derakhchan K, et al., 1994). An arterial cannula was inserted in the right coronary artery for neurotransmitter infusion.
Measurement of electrophysiologic parameters: A single lead (II) surface electrocardiogram, atrial electrograms from each of the 5 bipolar electrodes, and the femoral arterial pressure were monitored and recorded using a Nihon Kohden polygraph (Model RM6008). Data were also stored on a Hewlett-Packard tape recorder. Atrial flutter was induced by burst stimulation (20-30 beats at basic cycle length <100 ms). During stable flutter (cycle length variation <10 ms), a premature stimulus was introduced at the site located on this re-entry circuit after every 20th spontaneous beat (T) in 2 ms decrements beginning at coupling intervals equal to the cycle length of this atrial tachycardia. […]

[1] = test system: common human atrial flutter; conditions: cited from earlier work
atrial flutter = conditions: intravenous atropine and propranolol together; supine or upright position; cited from earlier work
[2] = d,l-sotalol group, 7 dogs, NE 15 μg/min, ACh 2 μg/min into right coronary artery, d,l-sotalol 0.8 mg/kg+0.4 mg/kg/hr
[3] = d-sotalol group, 6 dogs, NE 15 μg/min, ACh 2 μg/min into right coronary artery, d-sotalol 0.8 mg/kg+0.4 mg/kg/hr

SMILES	Atrial Flutter Cycle Length (AF1CL), mean (atrial flutter circuit; [2])	Atrial Effective Refractory Period (AERP), mean (atrial flutter circuit; [2])	Atrial Flutter Cycle Length (AF1CL), mean (atrial flutter circuit; [3])	effect on atrial flutter cycle length (atrial flutter)	also measured
CC(C)NCC(O)c1ccc(NS(C)(=O)=O)cc1 (racemic) [d,1-S, d,l-Sotalol]	143.0 ms	–	–	–	antiarrhythmic therapeutic effects under vagal stimulation (atrial fibrillation): significantly and markedly reversed
CC[N+](C)(C)c1cccc(O)c1 [edrophonium]	–	–	–	–	effect on monophasic atrial action potential duration or atrial flutter cycle length [1]: no significant effect
CC(=O)OCC[N+](C)(C)C [ACh, acetylcholine]	119 ± 17 ms and 119.0000 ms and 119.0 ms	64 ± 4 ms and 63.6000 ms and 63.6 ms	123 ± 15 ms and 122.6667 ms and 122.7 ms	–	Effective Refractory Period duration (ERPdur), mean (atrial flutter circuit; [3]): 65 ± 5 ms and 64.8000 ms and 64.8 ms; Excitable Gap duration (EGdur), mean (atrial flutter circuit; [3]): 48 ± 16 ms and 47.6000 ms and 47.6 ms
CN1[C@@H]2CC[C@H]1C[C@@H](OC(=O)C(CO)c1ccccc1)C2 (stereo partly shown) [atropine]	–	–	–	did not change	–
CC(C)NCC(O)COc1cccc2ccccc12 (stereo not shown) [propranolol]	–	–	–	did not change	–
NC[C@H](O)c1ccc(O)c(O)c1 [NE, norepinephrine]	132 ± 8 ms and 131.7500 ms and 131.8 ms	93 ± 7 ms and 93.0000 ms and 93.0 ms	133 ± 12 ms and 133.0000 ms and 133.0 ms	–	reversal of d-sotalol effects on atrial flutter cycle length and effective refractory period duration (atrial flutter circuit; in the presence of d-sotalol): significantly reversed; effect on effective refractory period duration (atrial flutter circuit; infusion alone, d-sotalol group, 6 animals): significantly shortened; occurrence of the initiation of atrial flutter (atrial flutter circuit; neurotransmitter infusion, acetylcholine>>norepinephrine): significantly increased
